Data reported in patent US9617310B2 (priority 2013, dated 2017).

Test system: genotype 3a stable HCV replicon (S52) in Huh-7-derived cells
Assay: Stable subgenomic HCV replicon, genotype 3a, Renilla luciferase
Type: cell-based
Settings: Hepatitis C virus, 72 h, read-out: EC50 3A RLUC
Procedure: Antiviral potency (EC50) was determined in both stable subgenomic HCV replicon cell lines and transient-transfected HCV replicon cells. The term half maximal effective concentration (EC50) refers to the concentration of a drug which induces a response halfway between the baseline and maximum after the exposure time specified below.
Stable subgenomic HCV replicons for genotype 1a, 1b, 2a, 3a, and 4a were established in Huh-7-derived cells as described by Lohmann et al (Lohmann V, Korner F, Koch J, et al Replication of subgenomic hepatitis C virus RNAs in a hepatoma cell line. Science 1999; 285:119-3). Each stable cell line contains a bicistronic HCV replicon that encodes a humanized Renilla luciferase (hRLuc) reporter gene fused to a selectable neomycin-resistance gene, followed by an EMCV IRES and the NS3-NS5B coding region of HCV. […] Luciferase activity was measured as a marker for intracellular HCV replication levels.
The genotype 1a stable replicon was derived from the H77 HCV strain and contained adaptive mutations P1496L and S2204I. The genotype 1b stable replicon was derived from the Con1 HCV strain and contained adaptive mutations E1202G, T1280I, and K1846T. […] The genotype 3a stable replicon was derived from the S52 HCV strain and contained adaptive mutations P1121 L, A1198T and S2210I (equivalent to S2204I in genotype 1). The genotype 4a stable replicon was derived from the ED43 HCV strain and contained adaptive mutations Q1691R and S2204I. All replicon cell lines were propagated in Huh-7-derived cells and maintained in Dulbecco's modified Eagle's Medium (DMEM) supplemented with 10% fetal bovine serum (FBS) and 0.5 mg/ml G418.
To perform EC50 assays, cells from each HCV replicon were dispensed into 384-well plates. Compounds were dissolved in DMSO at a concentration of 10 mM and diluted in DMSO using an automated pipetting instrument. Three-fold serially diluted compounds were directly added to the cells using an automated instrument. DMSO was used as a negative (solvent; no inhibition) control, and a combination of three HCV inhibitors including a protease inhibitor; an NS5A inhibitor and a nucleoside inhibitor was used at concentrations >100×EC50 as a positive control (100% inhibition). Seventy-two hours later, cells were lysed and Renilla luciferase activity were quantified as recommended by the manufacturer (Promega-Madison, Wis.). Non-linear regression was performed to calculate […], values.

Q: How did the EC50 turn out when `CC(C)(C)[C@@H]1NC(=O)O[C@@H]2C[C@@H]3C[C@@H]3[C@H]2CCCCCc2nc3ccc(F)cc3nc2O[C@@H]2C[C@@H](C(=O)N[C@]3(C(=O)NS(=O)(=O)C4CC4)C[C@H]3C(F)F)N(C2)C1=O` [Example 12, (1aS,2aR,6S,9S,11R,23aR,23bS)-6-tert-butyl-N-[(1R,2R)-1-[(cyclopropylsulfonyl)carbamoyl]-2-(difluoromethyl)cyclopropyl]-15-fluoro-4,7-dioxo-1a,2,2a,4,5,6,7,10,11,19,20,21,22,23,23a,23b-hexadecahydro-1H,9H-8,11-methanocyclopropa[4′,5′]cyclopenta[1′,2′:18,19][1,10,3,6]dioxadiazacyclononadecino[11,12-b]quinoxaline-9-carboxamide] was run?
A: 0.089 µM

Q: `CC(C)(C)[C@@H]1NC(=O)O[C@@H]2C[C@@H]3C[C@@H]3[C@H]2CC/C=C/C(F)(F)c2nc3ccc(C#N)cc3nc2O[C@@H]2C[C@@H](C(=O)N[C@]3(C(=O)NS(=O)(=O)C4(C)CC4)C[C@H]3C(F)F)N(C2)C1=O` [Example 13, (1aS,2aR,6S,9S,11R,20E,23aR,23bS)-6-tert-butyl-15-cyano-N-[(1R,2R)-2-(difluoromethyl)-1-{[(1-methylcyclopropyl)sulfonyl]carbamoyl}cyclopropyl]-19,19-difluoro-4,7-dioxo-1a,2,2a,4,5,6,7,10,11,19,22,23,23a,23b-tetradecahydro-1H,9H-8,11-methanocyclopropa[4′,5′]cyclopenta[1′,2′18,19][1,10,3,6]dioxadiazacyclononadecino[11,12-b]quinoxaline-9-carboxamide] was tested. Which EC50 did it give?
A: 0.0072 µM

Q: Which EC50 does the source give for `CC(C)(C)[C@@H]1NC(=O)O[C@@H]2C[C@@H]3C[C@@H]3[C@H]2CCCCC(F)(F)c2nc3ccc(C#N)cc3nc2O[C@@H]2C[C@@H](C(=O)N[C@]3(C(=O)NS(=O)(=O)C4(C)CC4)C[C@H]3C(F)F)N(C2)C1=O` [Example 14, (1aS,2aR,6S,9S,11R,23aR,23bS)-6-tert-butyl-15-cyano-N-[(1R,2R)-2-(difluoromethyl)-1-{[(1-methylcyclopropyl)sulfonyl]carbamoyl}cyclopropyl]-19,19-difluoro-4,7-dioxo-1a,2,2a,4,5,6,7,10,11,19,20,21,22,23,23a,23b-hexadecahydro-1H,9H-8,11-methanocyclopropa[4′,5′]cyclopenta [1′,2′:18,19][1,10,3,6]dioxadiazacyclononadecino[11,12-b]quinoxaline-9-carboxamide] here?
A: 0.005 µM

Q: `CC(C)(C)[C@@H]1NC(=O)O[C@@H]2C[C@@H]3C[C@@H]3[C@H]2CCCCC(F)(F)c2nc3ccc(OC(F)F)cc3nc2O[C@@H]2C[C@@H](C(=O)N[C@]3(C(=O)NS(=O)(=O)C4CC4)C[C@H]3C(F)F)N(C2)C1=O` [Example 16, (1aS,2aR,6S,9S,11R,23aR,23bS)-6-tert-butyl-N-[(1R,2R)-1-[(cyclopropylsulfonyl)carbamoyl]-2-(difluoromethyl)cyclopropyl]-15-(difluoromethoxy)-19,19-difluoro-4,7-dioxo-1a,2,2a,4,5,6,7,10,11,19,20,21,22,23,23a,23b-hexadecahydro-1H,9H-8,11-methanocyclopropa[4′,5′]cyclopenta [1′,2′:18,19][1,10,3,6]dioxadiazacyclononadecino[11,12-b]quinoxaline-9-carboxamide] was tested. Which EC50 did it give?
A: 0.127 µM

Q: With `CC(C)(C)[C@@H]1NC(=O)O[C@@H]2C[C@@H]3C[C@@H]3[C@H]2CCCCC(F)(F)c2nc3ccccc3nc2O[C@@H]2C[C@@H](C(=O)N[C@]3(C(=O)NS(=O)(=O)C4(C)CC4)C[C@H]3C(F)F)N(C2)C1=O` [Example 17] as the compound, how does the EC50 read?
A: 0.026 µM

Q: `CC(C)(C)[C@@H]1NC(=O)O[C@@H]2C[C@@H]3C[C@@H]3[C@H]2CCCCC(F)(F)c2nc3ccccc3nc2O[C@@H]2C[C@@H](C(=O)N[C@]3(C(=O)NS(=O)(=O)C4CC4)C[C@H]3C(F)F)N(C2)C1=O` [Example 18] was tested. Which EC50 did it give?
A: 0.018 µM

Q: How did the EC50 turn out when `CC(C)(C)[C@@H]1NC(=O)O[C@@H]2C[C@@H]3C[C@@H]3[C@H]2CCCCCc2nc3ccc(Cl)cc3nc2O[C@@H]2C[C@@H](C(=O)N[C@]3(C(=O)NS(=O)(=O)C4CC4)C[C@H]3C(F)F)N(C2)C1=O` [Example 19, (1aS,2aR,6S,9S,11R,23aR,23bS)-6-tert-butyl-15-chloro-N-[(1R,2R)-1-[(cyclopropylsulfonyl)carbamoyl]-2-(difluoromethyl)cyclopropyl]-4,7-dioxo-1a,2,2a,4,5,6,7,10,11,19,20,21,22,23,23a, 23b-hexadecahydro-1H,9H-8,11-methanocyclopropa[4′,5′]cyclopenta[1′,2′:18,19][1,10,3,6]dioxadiazacyclononadecino[11,12-b]quinoxaline-9-carboxamide] was run?
A: 0.082 µM

Q: With `COc1ccc2nc3c(nc2c1)O[C@@H]1C[C@@H](C(=O)N[C@]2(C(=O)NS(=O)(=O)C4(C)CC4)C[C@H]2CC(F)F)N(C1)C(=O)[C@H](C(C)(C)C)NC(=O)O[C@@H]1C[C@@H]2C[C@@H]2[C@H]1CCCCC3(F)F` [Example 20, (1aS,2aR,6S,9S,11R,23aR,23bS)-6-tert-butyl-N-[(1R,2S)-2-(2,2-difluoroethyl)-1-{[(1-methylcyclopropyl)sulfonyl]carbamoyl}cyclopropyl]-19,19-difluoro-15-methoxy-4,7-dioxo-1a,2,2a,4,5,6,7,10,11,19,20,21,22,23,23a,23b-hexadecahydro-1H,9H-8,11-methanocyclopropa[4′,5′]cyclopenta[1′,2′:18,19][1,10,3,6]dioxadiazacyclononadecino[11,12-b]quinoxaline-9-carboxamide] as the compound, how does the EC50 read?
A: 0.046 µM

Q: `COc1ccc2cc3c(nc2c1)O[C@@H]1C[C@@H](C(=O)N[C@]2(C(=O)NS(=O)(=O)C4CC4)C[C@H]2C(F)F)N(C1)C(=O)[C@H](C(C)(C)C)NC(=O)O[C@@H]1C[C@@H]2C[C@@H]2[C@H]1CCCCC3` [Example 21, (1aS,2aR,6S,9S,11R,23aR,23bS)-6-tert-butyl-N-[(1R,2R)-1-[(cyclopropylsulfonyl)carbamoyl]-2-(difluoromethyl)cyclopropyl]-15-methoxy-4,7-dioxo-1a,2,2a,4,5,6,7,10,11,19,20,21,22,23,23a,23b-hexadecahydro-1H,9H-8,11-methanocyclopropa[4′,5′]cyclopenta[1′,2′:18,19][1,10,3,6]dioxadiazacyclononadecino[11,12-b]quinoline-9-carboxamide] was tested. Which EC50 did it give?
A: 0.115 µM
